Where two headings read alike, the source gives them in different places.
What was measured:
[1] = target: T1, Human MIF (MIF tautomerase activity) (Homo sapiens, UniProt P14174); experiment: HPP tautomerase assay; assay type: biochemical; settings: for IC50: read-out: HPP IC50
T1 construct: made in house
T1 sequence (P14174 2-115 limits assumed): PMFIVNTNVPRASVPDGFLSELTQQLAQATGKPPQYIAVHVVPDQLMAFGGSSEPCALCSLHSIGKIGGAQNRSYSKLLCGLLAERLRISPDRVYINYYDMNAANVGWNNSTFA
Method: The HPP assay used was adapted to the microtiter plate format. […] Dilutions of the enzyme were prepared in 50 mM sodium phosphate buffer, 1 mM EDTA, pH 6.5. HPP was obtained from Aldrich. A stock solution of 60 mM HPP in ethanol is prepared and kept for maximally 4 hours on ice. The working solution (600 μM) of the substrate was prepared by diluting an aliquot of the stock solution with 50 mM sodium phosphate buffer, 1 mM EDTA, pH 6.5. […] Inhibitor and enzyme solutions were pipetted manually using an Eppendorf 12-channel pipette. Addition of substrate to start the reaction was performed with an Igel 96 pipetting station (OpalJena, Jena, Germany), which allows simultaneous addition of fluid to all 96 wells of the plates. Optical density (OD) was determined using a SPECTRAmax 250 reader (Molecular Devices). The reader was operated with the SoftmaxPro 2.6.1 software. Assay: Three wells of the microtiter plates were filled with buffer only, to allow for blanking. […] The last step was performed using the 96-channel pipetting device. The plate was then immediately (i.e. within a few seconds) transferred manually to the SPECTRAmax 250 reader and the optical density was determined (310 nm). From the data obtained, IC50 values were calculated using Excel® and XLfit® software.

[2] = target: T2, MIF-CD74 Binding (biotin-labeled recombinant human MIF, recombinant human MIF receptor CD74 ectodomain) (Homo sapiens, UniProt P14174); experiment: MIF-CD74 binding (capture) assay; parameters: concentration of C74 % MaxInhib (number after @): unit not given here; settings: for CD74 % MaxInhib / C74 % MaxInhib: number before @; for Capture IC50 / Capture % Max. Inhib.: Table 3; for % Bound: Table 19
T2 sequence (P14174 2-115 limits assumed): T1 sequence (P14174 2-115 limits assumed)

[3] = Table 13, data cell c5, number before @
[4] = Table 19, data cell c5, read-out: CD74 IC50
[5] = Table 2, read-out: MIF-CD74 IC50

Compound: Cc1ccc2cc(C(=O)c3cc4ccccc4o3)oc2c1 [MIF-077]
- concentration of HPP Max Inhib (number after @) ([1]; Table 13): 1000 µM
- HPP Max Inhib [1, 3]: 30%
- concentration of CD74 % MaxInhib (number after @) ([2]; Table 13): 0.24 µM
- CD74 % MaxInhib ([2]; Table 13): 16%

Compound: O=c1c2cc(Br)ccc2sn1-c1ccc(Cl)cc1 [Compound 39]
- IC50 ([1]; Table 3): 7.9 µM
- IC50 ([1]; Table 6, data cell c7): 7.9 µM

Compound: COc1ccccc1Cn1c(=O)oc2ccc(F)cc21 [Compound 10]
- concentration of CD74 % MaxInhib (number after @) ([2]; Table 4): 0.039 µM

Compound: COc1cccc(Cn2cc(-c3ccc(O)cc3)nn2)c1OC [MIF-034]
- IC50 ([1]; Table 19, data cell c6): 0.5 to 1 µM
- IC50 [2, 4]: 1.2 µM

Compound: O=C1c2cc(F)ccc2CN1c1ccc(Cl)cc1 [MIF-125]
- HPP % MaxInhib ([1]; Table 9, number before @): 45%
- concentration of CD74 % MaxInhib (number after @) ([2]; Table 9): 0.12 µM
- CD74 % MaxInhib ([2]; Table 9): 19%

Compound: O=c1c2ccc(F)cc2sn1-c1ccc(Cl)cc1 [Compound 26]
- IC50 ([1]; Table 3): 4.2 µM
- IC50 ([1]; Table 6, data cell c7): 4.2 µM
- Capture IC50 [2]: agonist
- CD74 IC50 ([2]; Table 6, data cell c9): agonist

Compound: O=c1c2ccc(F)cc2sn1-c1cccc(CO)c1 [Compound 29]
- Capture % Max. Inhib. [2]: 8%
- CD74 % MaxInhib ([2]; Table 6, data cell c8): 8%

Compound: c1ccc(COc2ccc3cc(-c4cc[nH]c4)[nH]c3c2)cc1 [Compound 24]
- IC50 [2, 5]: 5000 µM
- IC50 ([2]; Table 5, read-out: CD74 IC50): 5000 µM
- IC50 ([2]; Table 22, read-out: CD74 IC50): 5000 µM

Compound: COc1cccc(Cn2cc(-c3ccc(O)cc3)nn2)c1 [MIF-005]
- % Bound [2]: 67%
- IC50 [2, 4]: 100 µM

Compound: O=C(c1cc2ccccc2o1)N1CCc2ccccc21 [Compound 21]
- IC50 ([1]; Table 5): 3 µM
- IC50 [2, 5]: 4 µM
- IC50 ([2]; Table 5, read-out: CD74 IC50): 4 µM
- IC50 ([2]; Table 14, read-out: CD74 IC50): 4 µM

Compound: Oc1ccc(-c2cn(Cc3ccccc3)nn2)cc1 [MIF-002]
- % Bound [2]: 96%
- IC50 [2, 4]: 6000 µM

Compound: Fc1ccc2cn(-c3ccc(Cl)cc3)nc2c1 [MIF-131]
- HPP % MaxInhib ([1]; Table 11, number before @): 30%
- concentration of CD74 % MaxInhib (number after @) ([2]; Table 11): 0.12 µM
- CD74 % MaxInhib ([2]; Table 11): 29%

Compound: O=c1c2ccc(F)cc2sn1-c1ccc(Cl)cc1 [Compound 25]
- IC50 ([1]; Table 2): 4.2 µM
- activity in the capture assay [2]: agonist behavior
- MIF-CD74 IC50 ([2]; Table 2): agonist
- CD74 IC50 ([2]; Table 5): agonist

Compound: O=C(O)COc1ccc2occ(C(=O)c3ccccc3)c2c1 [Compound 23]
- IC50 [2, 5]: 1500 µM
- IC50 ([2]; Table 5, read-out: CD74 IC50): 1500 µM
- IC50 ([2]; Table 16, read-out: CD74 IC50): 1500 µM

Compound: COCCc1nc2ccccc2n1Cc1ccccc1 [MIF-066]
- HPP Max Inhib ([1]; Table 5): 18%
- concentration of CD74 % MaxInhib (number after @) ([2]; Table 5): 1.87 µM
- CD74 % MaxInhib ([2]; Table 5): 25%

Compound: O=C1c2ccc(F)cc2CN1c1ccc(Cl)cc1 [MIF-126]
- concentration of HPP % MaxInhib (number after @) ([1]; Table 9): 100 µM
- HPP % MaxInhib ([1]; Table 9, number before @): 32%
- concentration of CD74 % MaxInhib (number after @) ([2]; Table 9): 0.078 µM
- CD74 % MaxInhib ([2]; Table 9): 7%

Compound: N#Cc1ccc2sn(-c3ccc(Cl)cc3)c(=O)c2c1 [Compound 40]
- IC50 ([1]; Table 3): 19 µM
- IC50 ([1]; Table 6, data cell c7): 19 µM
- Capture IC50 [2]: agonist
- CD74 IC50 ([2]; Table 6, data cell c9): agonist

Compound: COC(=O)c1cccc(Cn2cc(-c3ccc(O)cc3)nn2)c1 [MIF-036]
- IC50 ([1]; Table 19, data cell c6): 2.5 µM
- IC50 [2, 4]: 1.2 µM

Compound: O=c1c2ccc(F)c(F)c2sn1-c1ccc(Cl)cc1 [MIF-134]
- IC50 ([1]; Table 6, data cell c7): 5.6 µM
- concentration of CD74 % MaxInhib (number after @) ([2]; Table 6): 3.76 µM
- CD74 % MaxInhib ([2]; Table 6, data cell c8): 11%

Compound: Clc1ccc(-c2nc3cc(Cl)ccc3o2)cc1 [MIF-122]
- HPP % MaxInhib ([1]; Table 7, data cell c6, number before @): 31%
- concentration of CD74 % MaxInhib (number after @) ([2]; Table 7): 3.76 µM
- CD74 % MaxInhib ([2]; Table 7, data cell c7): 13%

Compound: COc1ccc(Cc2cn(-c3ccc(O)cc3)nn2)cc1OC [MIF-090]
- IC50 ([1]; Table 18): 70 µM
- concentration of C74 % MaxInhib (number after @) ([2]; Table 18): 0.078
- C74 % MaxInhib ([2]; Table 18): 22%

Compound: O=C(c1cc2ccccc2o1)c1cc2cc(F)ccc2o1 [MIF-073]
- concentration of HPP Max Inhib (number after @) ([1]; Table 13): 700 µM
- HPP Max Inhib [1, 3]: 33%
- concentration of CD74 % MaxInhib (number after @) ([2]; Table 13): 0.12 µM
- CD74 % MaxInhib ([2]; Table 13): 17%

Compound: O=c1c2cc(F)ccc2sn1-c1ccc(Cl)cc1 [Compound 30]
- Capture % Max. Inhib. [2]: 7%
- CD74 % MaxInhib ([2]; Table 6, data cell c8): 7%

Compound: O=c1c2cc(C(F)(F)F)ccc2sn1-c1ccc(Cl)cc1 [Compound 35]
- Capture % Max. Inhib. [2]: 12%
- CD74 % MaxInhib ([2]; Table 6, data cell c8): 12%

Compound: COc1ccc(Cc2cn(-c3ccc(O)cc3)nn2)cc1 [MIF-086]
- IC50 ([1]; Table 18): 65 µM
- concentration of C74 % MaxInhib (number after @) ([2]; Table 18): 0.078
- C74 % MaxInhib ([2]; Table 18): 36%

Compound: COc1cccc(Cn2c(=O)oc3ccc(CO)cc32)c1 [Compound 4, 5-hydroxymethyl-3-(3-methoxy-benzyl)-3H-benzooxazol-2-one]
- HPP Max Inhib ([1]; Table 1): 44%
- concentration of HPP Max Inhib (number after @) ([1]; Table 4): 200 µM
- concentration of CD74 % MaxInhib (number after @) ([2]; Table 4): 0.039 µM
- CD74 % MaxInhib ([2]; Table 4): 27%

Compound: COc1cccc(Cn2c(=O)oc3ccc(C)cc32)c1 [Compound 5]
- IC50 ([1]; Table 1): 2.9 µM
- concentration of CD74 % MaxInhib (number after @) ([2]; Table 4): 1.87 µM
- CD74 % MaxInhib ([2]; Table 4): 42%

Compound: Cc1ccc2nc(-c3ccccc3)sc2c1 [MIF-138]
- HPP IC50 ([1]; Table 8): agonist
- concentration of CD74 % MaxInhib (number after @) ([2]; Table 8): 0.078 µM
- CD74 % MaxInhib ([2]; Table 8): 20%

Compound: COc1ccc2cc(C(=O)N3CCc4ccccc43)oc2c1 [MIF-083]
- concentration of HPP Max Inhib (number after @) ([1]; Table 14): 3 µM
- HPP Max Inhib ([1]; Table 14, number before @): 33%
- concentration of CD74 % MaxInhib (number after @) ([2]; Table 14): 0.078 µM
- CD74 % MaxInhib ([2]; Table 14): 12%

Compound: Fc1ccc2[nH]c(-c3ccc(Cl)cc3)nc2c1 [MIF-130]
- HPP % MaxInhib ([1]; Table 12, number before @): 28%
- concentration of CD74 % MaxInhib (number after @) ([2]; Table 12): 0.34 µM
- CD74 % MaxInhib ([2]; Table 12): 21%

Compound: COc1cccc(-n2sc3ccc(F)cc3c2=O)c1 [MIF-144]
- IC50 ([1]; Table 6, data cell c7): 2.75 µM

Compound: O=C(c1cc2cc(F)ccc2o1)N1CCc2ccccc21 [MIF-089]
- concentration of HPP Max Inhib (number after @) ([1]; Table 14): 1 µM
- HPP Max Inhib ([1]; Table 14, number before @): 19%
- concentration of CD74 % MaxInhib (number after @) ([2]; Table 14): 0.12 µM
- CD74 % MaxInhib ([2]; Table 14): 30%

Compound: COc1cccc(-n2sc3cc(F)ccc3c2=O)c1 [Compound 28]
- IC50 ([1]; Table 3): 25 µM
- IC50 ([1]; Table 6, data cell c7): 25 µM

Compound: O=C(O)c1cccc(Cn2cc(-c3ccc(O)cc3)nn2)c1 [MIF-037]
- % Bound [2]: 70-90%

Compound: COCc1cccc(-n2sc3cc(F)ccc3c2=O)c1 [MIF-136]
- IC50 ([1]; Table 6, data cell c7): 2.4 µM

Compound: Oc1ccc2c(c1)oc1ccccc12 [MIF-039]
- IC50 ([2]; Table 17, read-out: CD74 IC50): 900 µM

Compound: Cc1ccccc1Cn1cc(-c2ccc(O)cc2)nn1 [MIF-032]
- % Bound [2]: 100%

Compound: O=Cc1cccc(-n2sc3cc(F)ccc3c2=O)c1 [MIF-135]
- IC50 ([1]; Table 6, data cell c7): 6 µM

Compound: COc1ccc(Cn2cc(-c3ccc(O)cc3)nn2)cc1 [MIF-004]
- % Bound [2]: 94%

Compound: Oc1ccc(-c2cn(Cc3ccccn3)nn2)cc1 [MIF-035]
- IC50 ([2]; Table 20, read-out: CD74 IC50): 300 µM

Compound: O=C(c1cc2ccccc2o1)c1cc2ccccc2o1 [Compound 20, bisbenzofuran-2-yl methanone]
- concentration of CD74 % MaxInhib (number after @) ([2]; Table 13): 0.058 µM

Compound: COc1cccc(Cc2cn(-c3ccc(O)cc3)nn2)c1OC [MIF-084]
- IC50 ([1]; Table 18): 530 µM

Compound: Oc1ccc(-c2cn(-c3cccnc3)nn2)cc1 [MIF-007]
- IC50 ([1]; Table 20): 970 µM

Compound: Oc1ccc(-n2cc(Cc3ccccc3)nn2)cc1 [MIF-003]
- IC50 ([2]; Table 18, read-out: CD74 IC50): 3.5 µM

Compound: Cc1ccc2cc(C(=O)N3CCc4ccccc43)oc2c1 [MIF-082]
- concentration of CD74 % MaxInhib (number after @) ([2]; Table 14): 0.24 µM
- CD74 % MaxInhib ([2]; Table 14): 19%

Compound: Cc1cccc(Cn2cc(-c3ccc(O)cc3)nn2)c1 [MIF-031]
- % Bound [2]: 100%

Compound: Cc1ccc2oc(C(=O)c3cc4ccccc4o3)cc2c1 [MIF-078]
- concentration of HPP Max Inhib (number after @) ([1]; Table 13): 700 µM
- HPP Max Inhib [1, 3]: 47%

Compound: COc1ccc(-n2sc3cc(F)ccc3c2=O)cc1 [Compound 27]
- IC50 ([1]; Table 3): 6.2 µM

Compound: N#Cc1nc2ccccc2n1Cc1ccccc1 [Compound 18, 1-Benzyl-1H-benzoimidazole-2-carbonitrile]
- concentration of CD74 % MaxInhib (number after @) ([2]; Table 5): 0.078 µM

Compound: Oc1ccc(-c2cn(-c3cncc4ccccc34)nn2)cc1 [MIF-008]
- IC50 ([1]; Table 20): 32 µM

From US10202343B2, “MIF modulators” (YALE UNIVERSITY, priority 2008, dated 2019)
